Data on twelve molecules can be found in patent US20210007356A1, “IMIDE DERIVATIVE AND FUNGICIDE CONTAINING SAID DERIVATIVE AS ACTIVE INGREDIENT” (HOKKO CHEMICAL INDUSTRY CO., LTD., priority 2018, published 2021).

In series [1] the test system is barley powdery mildew fungus (Erysiphe graminis). The experiment in a line: Test Example 2: control effect against barley powdery mildew by foliage application. Type of series: in vivo. Particulars: wettable powder diluted to 100 ppm, 10 mL per pot foliage spray on barley; inoculated day after; 7 days after inoculation.
Series [2] has as its system rice blast fungus (Pyricularia grisea). Type of series: in vivo. The following applies: flowable diluted to 100 ppm, 10 mL per pot foliage spray on paddy rice; inoculated day after; 7 days after inoculation.
Series [3] has the same test system. Type of series: in vivo. The following applies: flowable 5,000 ppm, 50 mL irrigation of nursery box, paddy rice; inoculated after 3 weeks; 7 days after inoculation.
For series [4] the test system is unchanged. Type of series: in vivo. The following applies: 5 g of granule on nursery box, paddy rice; inoculated after 3 weeks; 7 days after inoculation.
The test system is the same in series [5]. Type of series: in vivo. The following applies: flowable 1,000 ppm, 1 mL dripped in paddy water, inoculated after 1 week, 7 days after inoculation.
In series [6] the test system is rice sheath blight fungus (Thanatephorus cucumeris). Put plainly: Test Example 8: control effect against rice sheath blight by box treatment (granule). Particulars: 5 g of granule on nursery box, paddy rice; inoculated after 3 weeks; 7 days after inoculation.
The test system is the same in series [7]. Put plainly: Test Example 6: control effect against rice sheath blight by box treatment (flowable formulation). The following applies: flowable 5,000 ppm, 50 mL irrigation of nursery box, paddy rice; inoculated after 3 weeks; 7 days after inoculation.
For series [8] the test system is unchanged. Put plainly: Test Example 10: control effect against rice sheath blight by water surface application (flowable formulation). The following applies: flowable 1,000 ppm, 1 mL dripped in paddy water, inoculated after 1 week, 7 days after inoculation.

The structures appear in SMILES notation. Read-outs that look alike come from different tables or passages of the source.

Turning to `Cc1nc(C(F)F)c(C(=O)N(C(=O)c2scnc2C(F)F)c2ccccc2C(C)CC(C)C)s1` (stereo not drawn) [7-262], in [1], the “evaluation value of control effect (from control value, lesion area percentage)” value stood at 4. Moreover, the “evaluation value of control effect (from control value, number of lesions)” value in series [2] was found to be 4; in series [3] it was 5; in [4], 5; in series [5], 5. The “evaluation value of control effect (from control value, lesion height)” value in series [6], in series [7] and in series [8] was 5 in each case.
Broadly, the melting point is the temperature, or range, at which the solid turns liquid. `CC(C)CC(C)c1ccccc1N(C(=O)c1cccnc1C(F)F)C(=O)c1snc(Cl)c1Cl` (stereo not drawn) [13-2, 3,4-Dichloro-N-{2-(difluoromethyl)pyridine-3-carbonyl}-N-{2-(1,3-dimethylbutyl)phenyl}isothiazole-5-carboxamide]: the melting point was 111 to 115.6 °C. In addition, in [1], the “evaluation value of control effect (from control value, lesion area percentage)” value is on record as 5. Further, the “evaluation value of control effect (from control value, number of lesions)” value in series [2] is on record as 4. Also, in series [3], the “evaluation value of control effect (from control value, number of lesions)” value worked out at 5. In series [4], the “evaluation value of control effect (from control value, number of lesions)” value came out at 5. Further, in series [5], the “evaluation value of control effect (from control value, number of lesions)” value is 5. Besides, the “evaluation value of control effect (from control value, lesion height)” value in series [6] turned out to be 5. Moreover, in series [7], the “evaluation value of control effect (from control value, lesion height)” value was 5. Further, in [8], the “evaluation value of control effect (from control value, lesion height)” value stood at 5.
As for `CC(C)CC(C)c1ccccc1N(C(=O)c1cccnc1Br)C(=O)c1snc(Cl)c1Cl` (stereo not drawn) [13-54], in series [1], the “evaluation value of control effect (from control value, lesion area percentage)” value was 4. The “evaluation value of control effect (from control value, number of lesions)” value in series [2] was found to be 4; in [3], 5; in [4], 5; in series [5] it was 5. The “evaluation value of control effect (from control value, lesion height)” value in series [6], in series [7] and in series [8] was 5 in each case.
As to `O=C(c1nccnc1C(F)(F)F)N(c1ccccc1-c1ccc(F)c(F)c1)c1snc(Cl)c1Cl` [13-55, N-(3,4-Dichloroisothiazol-5-yl)-N-(3′,4′-difluorobiphen-2-yl)-3-(trifluoromethyl)pyrazine-2-carboxamide], the melting point fell in the range of 136.1 to 139.2 °C. Moreover, the “evaluation value of control effect (from control value, lesion area percentage)” value in series [1] is 5. For the same molecule, the “evaluation value of control effect (from control value, number of lesions)” value in [2] came out at 4. The “evaluation value of control effect (from control value, number of lesions)” value in series [3] was found to be 5. In series [4], the “evaluation value of control effect (from control value, number of lesions)” value was 5. Besides, the “evaluation value of control effect (from control value, number of lesions)” value in [5] came out at 5. Besides, the “evaluation value of control effect (from control value, lesion height)” value in [6] turned out to be 5. Further, the “evaluation value of control effect (from control value, lesion height)” value in [7] worked out at 5. Further, the “evaluation value of control effect (from control value, lesion height)” value in [8] stood at 5.
On to `CC(C)CC(C)c1ccccc1N(C(=O)c1cc(F)nc(F)c1)C(=O)c1cccnc1C(F)F` (stereo not drawn) [13-58], for which, in [1], the “evaluation value of control effect (from control value, lesion area percentage)” value worked out at 5. Moreover, the “evaluation value of control effect (from control value, number of lesions)” value in series [2] was 4; in [3], 5; in series [4], 5; in series [5] it was 5. Also, the “evaluation value of control effect (from control value, lesion height)” value in [6], in series [7] and in series [8] was 5 throughout.
Turning to `CC1CC(C)(C)c2cccc(N(C(=O)c3cn(C)nc3C(F)F)C(=O)c3snc(Cl)c3Cl)c21` (stereo not drawn) [25-4, 3,4-Dichloro-N-{3-(difluoromethyl)-1-methyl-pyrazole-4-carbonyl)-N-(2,3-dihydro-1,1,3-trimethyl-1H-inden-4-yl)-isothiazole-5-carboxamide], the melting point was 154.3 to 155.6 °C. Also, in series [1], the “evaluation value of control effect (from control value, lesion area percentage)” value came to 4. Also, the “evaluation value of control effect (from control value, lesion height)” value in series [6] is listed as 5. In addition, in [7], the “evaluation value of control effect (from control value, lesion height)” value amounted to 5. Also, the “evaluation value of control effect (from control value, lesion height)” value in series [8] came to 5.
For `Cc1nnsc1C(=O)N(C(=O)c1cn(C)nc1C(F)F)c1cccc2c1C(C)OC2(C)C` (stereo not drawn) [25-56], the “evaluation value of control effect (from control value, lesion area percentage)” value in series [1] turned out to be 4. Further, the “evaluation value of control effect (from control value, number of lesions)” value in series [2] turned out to be 4; in series [3], 5; in series [4], 5; in [5] it was 5. Besides, the “evaluation value of control effect (from control value, lesion height)” value in series [6], in series [7] and in series [8] was 5 each time.
Regarding `CC1OC(C)(C)c2cccc(N(C(=O)c3cn(C)nc3C(F)F)C(=O)c3snnc3C(F)F)c21` (stereo not drawn) [25-68], the “evaluation value of control effect (from control value, lesion area percentage)” value in [1] came to 4. Moreover, the “evaluation value of control effect (from control value, number of lesions)” value came to 4 in series [2], 5 in series [3], 5 in series [4] and 5 in series [5]. Besides, the “evaluation value of control effect (from control value, lesion height)” value in series [6], in series [7] and in [8] was 5 throughout.
Consider `CC1OC(C)(C)c2cccc(N(C(=O)c3cn(C)nc3C(F)F)C(=O)c3scnc3C(F)F)c21` (stereo not drawn) [25-110], for which the “evaluation value of control effect (from control value, lesion area percentage)” value in series [1] amounted to 4. The “evaluation value of control effect (from control value, number of lesions)” value in series [2] was 4; in [3], 5; in series [4] it was 5; in series [5], 5. Also, the “evaluation value of control effect (from control value, lesion height)” value in series [6], in series [7] and in series [8] was 5 each time.
In turn, `Cc1nn(C)c(Cl)c1C(=O)N(C(=O)c1snc(Cl)c1Cl)c1cccc2c1C(C)OC2(C)C` (stereo not drawn) [25-115, 3,4-Dichloro-N-(5-chloro-1,3-dimethyl-pyrazole-4-carbonyl)-N-(1,3-dihydro-1,1,3-trimethylisobenzofuran-4-yl)-isothiazole-5-carboxamide] yielded a melting point of 165.5 to 170.3 °C. In addition, the “evaluation value of control effect (from control value, lesion area percentage)” value in series [1] is given as 4. Moreover, the “evaluation value of control effect (from control value, number of lesions)” value in series [2] stood at 4. Further, in [6], the “evaluation value of control effect (from control value, lesion height)” value is 5. The “evaluation value of control effect (from control value, lesion height)” value in [7] is on record as 5. The “evaluation value of control effect (from control value, lesion height)” value in [8] stood at 5.
In the case of `Cc1nc(C(F)F)c(C(=O)N(C(=O)c2snnc2C)c2cccc3c2C(C)OC3(C)C)s1` (stereo not drawn) [26-50], the “evaluation value of control effect (from control value, lesion area percentage)” value in series [1] is given as 4. For the same molecule, the “evaluation value of control effect (from control value, number of lesions)” value in series [2] amounted to 4; in series [3], 5; in series [4], 5; in series [5], 5. The “evaluation value of control effect (from control value, lesion height)” value in series [6], in series [7] and in series [8] was 5 in each case.
As for `Cc1nc(C(F)F)c(C(=O)N(C(=O)c2scnc2C(F)F)c2cccc3c2C(C)CC3(C)C)s1` (stereo not drawn) [26-85], the “evaluation value of control effect (from control value, lesion area percentage)” value in series [1] was 5. Besides, the “evaluation value of control effect (from control value, number of lesions)” value in series [2] worked out at 4; in series [3], 5; in series [4], 5; in series [5] it was 5. Also, the “evaluation value of control effect (from control value, lesion height)” value in [6], in series [7] and in series [8] was 5 in each case.
